Key:
[1] = test system: HCC-2998; experiment: cells; details: Homo sapiens, HCC 2998, 48 h
[2] = test system: NCI-H522; experiment: NCI-60 SRB screen; details: for GI50 / CC50: Homo sapiens; for GI50 / CC50 / TGI: NCI-H522, 48 h; for CC50: read-out: LC50, NCI-H522, 48 h
[3] = test system: COLO 205; experiment: cells; details: Homo sapiens, COLO 205, 48 h; for CC50: read-out: LC50, COLO 205, 48 h
[4] = test system: SF-539; experiment: cells; details: Homo sapiens, SF-539, 48 h
[5] = test system: Bax protein in MDA-MB-231 cells; experiment: anti-Bax antibody flow cytometry; format: cell-based, human; details: MDA-MB-231, concentration not stated (5 or 10 µM), 24 h
Experimental: (§1) The effect of the tested compounds on the intrinsic mitochondrial pathway of programmed cell death was further assessed. For this purpose, the concentration of the proapoptotic Bax protein from the Bcl-2 family was examined. The concentration of this protein was analyzed in breast cancer cells after treatment with novel compounds at concentrations of 1 and 5 µM for the MCF-7 line and 5 and 10 µM for the MDA-MB-231 line.
(§2) An anti-Bax FITC-conjugated antibody was applied to evaluate the effect of tested compounds on the concentration of Bax protein in this experiment. First, MCF-7 and MDA-MB-231 cells were seeded into 6-well plates at 5 × 10^5 cells per well. Test compounds 2b, 12b, and 14b were then added at concentrations of 1 and 5 µM and 5 and 10 µM for MCF-7 and MDA-MB-231, respectively. The concentration of doxorubicin as a reference compound was 1 and 5 µM for both lines. After 24 h of incubation, cells were harvested, centrifuged, washed with 1 mL of PBS, and then fixed with 4% paraformaldehyde for 15 min at RT. After removal of the paraformaldehyde, cells were washed with PBS, then resuspended in 0.5 mL of cold 90% methanol, and frozen at −20 °C. […] The prepared samples were read immediately using the BD FACS Canto II flow cytometer (Becton Dickinson Biosciences, San Jose, CA, USA).

[6] = test system: caspase-3 in MDA-MB-231 cells; experiment: caspase-3 ELISA; format: cell-based, human; details: MDA-MB-231, 10 μM (highest concentration), 24 h
Experimental: To confirm the activity of the caspase pathway, an effector caspase-3 was assayed on MCF-7 and MDA-MB-231 cell lines after 24 h of treatment using the ELISA method. Novel 4-thiazolidinone derivatives were tested in concentrations of 1 and 5 μM for the MCF-7 cell line and 5 and 10 μM for the MDA-MB-231 cell line.
Using a SimpleStep ELISA kit (Abcam, Cambridge, UK), we determined the levels of cytochrome C and caspase-3 in cells’ lysates with 2b, 12b, and 14b (1 and 5 μM for the MCF-7 cell line and 5 and 10 μM for the MDA-MB-231) and doxorubicin in concentrations of 1 and 5 μM for both lines after 24 h incubation. Assays were performed according to the manufacturer’s protocols.

[7] = test system: MCF-7 cell line; experiment: Annexin V-FITC/propidium iodide flow cytometry; format: cell-based, human; details: 24 h
Experimental: The three chosen compounds, 2b, 12b, and 14b, were tested using Annexin V-FITC and propidium iodide to assess their effects on apoptosis induction on MCF-7 and MDA-MB-231 cell lines. To evaluate the population of cells, four states were determined: unstained cells (alive), cells stained with propidium iodide (necrotic), cells stained with FITC-labeled Annexin V (early apoptotic), and cells stained with both Annexin V and propidium iodide (late apoptotic). […] In a concentration of 5 μM the values were 8.5% and 12.2%, respectively. For 12b in a concentration equal to 1 μM, the obtained results showcased 7.2% of cells in early and late apoptosis and 0.7% in a state of necrosis. For 5 μM concentration results were 23.7% and 11.5%, respectively.
To conduct induction of apoptosis on MCF-7 and MDA-MB-231 cell lines, three compounds with the lowest IC50 values were selected (2b, 12b, 14b). The concentration of these compounds depended on the cell line. For MCF-7 cell line concentrations of 1 and 5 μM were used, while for MDA-MB-231 cell line concentrations were 5 and 10 μM. For both cell lines doxorubicin was used as a reference compound in 1 and 5 μM concentrations. This study was evaluated using a flow cytometer (BD FACSCanto II, Becton Dickinson Biosciences Systems, San Jose, CA, USA) and Annexin V binding Apoptosis Detection Kit II (BD Biosciences, San Diego, CA, USA). Cells were seeded in 6-well culture plates cultured in accordance with the previously described methodology. The medium was removed from wells and then cells were washed with PBS. A cell suspension was prepared in the binding buffer provided in the kit at a concentration of 1 × 10^6 cells/mL. A total of 100 µL of cell suspension was collected from each sample and transferred to the tubes. Afterwards, 5 µL of Annexin V-FITC and 4 µL of propidium iodide (PI) were added to each tube and then the tubes were incubated in the dark for 15 min at room temperature. After incubation, the suspension was supplemented to 300 µL with a binding buffer and immediately read in a BD FACSCanto II flow cytometer (Becton Dickinson Biosciences, San Jose, CA, USA), where 10,000 events per sample were measured. Results were analyzed using FACSDiva Software Version 6.1.3. (BD Biosciences Systems, San Jose, CA, USA).

[8] = test system: IGROV1; details: human, 48 h
[9] = test system: SK-MEL-2; details: human, 48 h
[10] = test system: NCI-H266; details: human, 48 h
[11] = test system: NCI-H322M; details: human, 48 h
[12] = test system: SF-295; details: human, 48 h
[13] = test system: SNB-19; details: human, 48 h
[14] = test system: EKVX; details: human, 48 h
[15] = test system: ACHN; details: human, 48 h
[16] = test system: SNB-75; details: human, 48 h
[17] = test system: Bax protein in MCF-7 cells; experiment: anti-Bax antibody flow cytometry; format: cell-based, human; details: MCF-7, 5 μM, 24 h
Experimental: as §1, §2

| Compound | GI50 [1] [µM] | GI50 [2] [µM] | CC50 [2] [µM] | TGI [2] [µM] | GI50 [3] [µM] | CC50 [3] [µM] | GI50 [4] [µM] | change of caspase-3 concentration [6] | cells in late and early apoptosis combined ([7]; MCF-7, 1 μM) [%] | necrotic cell population ([7]; MCF-7, 1 μM) [%] | cells in late and early apoptosis combined ([7]; MCF-7, 5 μM) [%] | necrotic cell population ([7]; MCF-7, 5 μM) [%] | further results |
| --- | --- | --- | --- | --- | --- | --- | --- | --- | --- | --- | --- | --- | --- |
| O=C(O)C(c1ccccc1)N1C(=O)/C(=C/C=C/c2ccc([N+](=O)[O-])o2)SC1=S (stereo not shown) [9b, 2-((Z)-5-((E)-3-(5-Nitrofuran-2-yl)allylidene)-4-oxo-2-thioxothiazolidin-3-yl)-2-phenylacetic acid] | 15.6 | 4.09 | 64.6 | 19.1 | 6.65 | 60.4 | 12 |  |  |  |  |  | growth GP ([2]; NCI-H522, 10 μM, 48 h): -88.21% |
| CC(C(=O)O)N1C(=O)/C(=C/C=C/c2ccc([N+](=O)[O-])o2)SC1=S (stereo not shown) [2b, 2-((Z)-5-((E)-3-(5-Nitrofuran-2-yl)allylidene)-4-oxo-2-thioxothiazolidin-3-yl)propanoic acid] |  |  |  |  |  |  |  | slight increase | 7.7 | 0.7 | 8.5 | 12.2 | Bax-positive cell population [5]: 26.33% |
| O=C(O)CCCN1C(=O)/C(=C/C=C/c2ccc([N+](=O)[O-])o2)SC1=S [13b, 4-((Z)-5-((E)-3-(5-Nitrofuran-2-yl)allylidene)-4-oxo-2-thioxothiazolidin-3-yl)butanoic acid] |  |  |  |  |  |  |  |  |  |  |  |  | CC50 [8]: 7.77 µM; CC50 [9]: 4.2 µM; CC50 [10]: > 100 µM; CC50 [11]: 22.8 µM; CC50 [12]: 5.08 µM; CC50 [13]: 5.5 µM; CC50 [14]: 6.05 µM; CC50 [15]: 3.72 µM; CC50 [16]: 5.49 µM |
| CC(C)C(C(=O)O)N1C(=O)/C(=C/C=C/c2ccc([N+](=O)[O-])o2)SC1=S (stereo not shown) [5b, 3-Methyl-2-((Z)-5-((E)-3-(5-nitrofuran-2-yl)allylidene)-4-oxo-2-thioxothiazolidin-3-yl)butanoic acid] | 1.72 | 1.12 | 5.69 | 2.53 | 1.33 | 5.83 | 1.44 |  |  |  |  |  |  |
| CCCC(C(=O)O)N1C(=O)/C(=C/C=C/c2ccc([N+](=O)[O-])o2)SC1=S (stereo not shown) [4b, 2-((Z)-5-((E)-3-(5-Nitrofuran-2-yl)allylidene)-4-oxo-2-thioxothiazolidin-3-yl)pentanoic acid] | 1.83 | 1.7 | 6.48 | 3.32 | 1.95 | 6.66 | 2.12 |  |  |  |  |  |  |
| O=C(O)CCN1C(=O)/C(=C/C=C/c2ccc([N+](=O)[O-])o2)SC1=S [12b, 3-((Z)-5-((E)-3-(5-Nitrofuran-2-yl)allylidene)-4-oxo-2-thioxothiazolidin-3-yl)propanoic acid] |  | 1.1 | 5.52 | 2.46 |  |  | 1.66 | significant increase | 7.2 | 0.7 | 23.7 | 11.5 |  |
| O=C(O)CCCCCN1C(=O)/C(=C/C=C/c2ccc([N+](=O)[O-])o2)SC1=S [14b, 6-((Z)-5-((E)-3-(5-nitrofuran-2-yl)allylidene)-4-oxo-2-thioxothiazolidin-3-yl)hexanoic acid] | 1.78 |  |  |  | 1.56 | 6.05 |  | at least two times more | 6.9 | 0.6 | 29.2 | 11.7 | CC50 [9]: 6.87 µM; CC50 [10]: 96.3 µM; CC50 [11]: 6.92 µM; Bax-positive cell population [17]: 14.67%; CC50 [12]: 6.61 µM; CC50 [13]: 6.67 µM; CC50 [14]: 7.52 µM; CC50 [15]: 5 µM; CC50 [16]: 4.03 µM |
| CCCCC(C(=O)O)N1C(=O)/C(=C/C=C/c2ccc([N+](=O)[O-])o2)SC1=S (stereo not shown) [6b, 2-((Z)-5-((E)-3-(5-nitrofuran-2-yl)allylidene)-4-oxo-2-thioxothiazolidin-3-yl)hexanoic acid] | 1.83 | 1.74 | 6.78 | 3.43 | 2.02 | 6.65 | 1.89 |  |  |  |  |  |  |
